In patent US8581005B2, “Mitochondrial inhibitors to treat human disease” (Albert Einstein College of Medicine of Yeshiva University, priority 2009, dated 2013):
Read-outs that look alike come from different tables or passages of the source.

Columns and labels:
[1] = test system: Sacchromyces cerevisiae strain J47D; assay: In vitro cell proliferation assay (yeast proliferation); assay type: cell-based; parameters: key to Inhibition of yeast proliferation: (+) Complete inhibition (no proliferation); (−) no inhibition (normal proliferation); (+/−) partial inhibition; (i) compound insoluble
Procedure: (§1) Sacchromyces cerevisiae strain J47D in log phase growth, was plated in 96 well dishes at 1.5×10^4 cells/well in YEPD media. Magmas inhibitors were diluted in DMSO and added at various concentrations (range 0 mM to 1 mM) to each well in triplicate at a final DMSC concentration of 1%. Samples were cultured at 30° C. in a Bioscreen C MBR incubator (Growth Curves USA, Piscataway, N.J.) and optical density (OD) readings were measured every 30 minutes for the indicated time in the plots. Cell proliferation data was analyzed and plotted using Microsoft Excel. Standard deviations were smaller than 2% of the mean OD value (n=3), and each experiment was performed at least two independent times.
Reduced Magmas function caused by siRNA knockdown or by mutations in Magmas causes growth inhibition and cell cycle arrest. To assay whether the compounds were active, their ability to inhibit yeast proliferation was measured. The results obtained in yeast are equivalent to those found in mammalian cells in part because the human homolog is fully functional in yeast and the target region is identical across all eukaryotic species.

[2] = test system: yeast strains containing several different Magmas mutations expressed on a plasmid; assay: Yeast proliferation assay with Magmas mutations and over-expression; assay type: cell-based
From the text: Mutations in Magmas were introduced by error prone PCR and the changes were identified by sequencing. Only genes with a single amino acid change were further analyzed. The genes encoding the mutations were spliced into plasmid pRS315 containing the selectable […] marker (leu) and transfected into yeast where the wt genomic copy was replaced by a his cassette and the essential Magmas activity was maintained by wt Magmas in the plasmid pRS316 (ura). The plasmid containing the wt Magmas gene was lost by selection in media containing FOA, resulting in yeast strains only expressing the mutant gene. Total yeast protein from each of the strains was separated by SDS-PAGE, and transferred to nitrocellulose membranes. The membranes were sequentially incubated with rabbit anti-Magmas antibody, HRP conjugated goat anti-rabbit antibody and chemiluminescence reagent. The signal was captured with a Fujifilm LAS-3000 Imager and the data analyzed with ImageGage software.
as §1
All of these stains express similar levels of Magmas protein, which is approximately 4 fold higher than the haploid control (Wt genomic).

[3] = molecular target: T1, purified yeast Magmas (Saccharomyces cerevisiae, UniProt P42949); assay: Binding to Magmas by fluorescence emission spectrum (tryptophan)
T1 sequence (P42949 1-149): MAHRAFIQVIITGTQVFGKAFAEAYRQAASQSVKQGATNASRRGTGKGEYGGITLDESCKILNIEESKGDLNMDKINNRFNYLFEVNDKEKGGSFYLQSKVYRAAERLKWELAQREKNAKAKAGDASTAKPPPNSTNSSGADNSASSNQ
Procedure: (§2) The binding of 9 to both purified yeast and mouse Magmas was evaluated. The fluorescence spectrum of tryptophan was measured for the binding to the yeast target and the fluorescence spectrum of tyrosine was measured for the binding to the murine target. The spectral shift observed at varying concentrations of 9 was used to determine the binding constant (FIG. 3).

[4] = molecular target: T2, purified mouse Magmas (Mus musculus, UniProt Q9CQV1); assay: Binding to Magmas by fluorescence emission spectrum (tyrosine); details: murine Magmas, FIG. 3B; read-out: calculated Kd
T2 sequence (Q9CQV1 1-125): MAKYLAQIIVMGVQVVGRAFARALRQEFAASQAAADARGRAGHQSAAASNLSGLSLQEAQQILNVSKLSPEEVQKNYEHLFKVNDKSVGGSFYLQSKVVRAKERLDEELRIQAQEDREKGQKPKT
Procedure: as §2

[5] = test system: K562; assay: Viability of human cells, trypan blue dye exclusion; assay type: cell-based; parameters: key: (+) Viable; (−) dead; (+/−) partial viability; details: 48 hrs
Procedure: (§3) Cell lines derived from human hematological malignancies and glioblastoma multiforme, and human umbilical vascular endothelial cells (HUVEC) were cultured in standard media with the concentrations of 9 indicated in Table 3. Viable cells were scored by trypan blue dye exclusion at 48 hrs. The HUVEC population consisted of a pool of primary cells isolated from the blood vessels of 4 umbilical cords. Each cell type was tested in duplicate in at least three independent experiments.

[6] = test system: Karpas; assay: as above; assay type: cell-based; parameters: key: (+) Viable; (−) dead; (+/−) partial viability; details: 48 hrs
Procedure: as §3

[7] = test system: Pfeiffer; assay: as above; assay type: cell-based; parameters: key: (+) Viable; (−) dead; (+/−) partial viability; details: 48 hrs
Procedure: as §3

[8] = test system: Toledo; assay: as above; assay type: cell-based; parameters: key: (+) Viable; (−) dead; (+/−) partial viability; details: 48 hrs
Procedure: as §3

[9] = test system: U118; assay: as above; assay type: cell-based; parameters: key: (+) Viable; (−) dead; (+/−) partial viability; details: 48 hrs
Procedure: as §3

[10] = test system: U87; assay: as above; assay type: cell-based; parameters: key: (+) Viable; (−) dead; (+/−) partial viability; details: 48 hrs
Procedure: as §3

[11] = test system: HUVEC; assay: as above; assay type: cell-based; parameters: key to viability of human cells: (+) Viable; (−) dead; (+/−) partial viability; details: for viability of human cells: HUVEC, 48 hrs
Procedure: as §3

[12] = test system: HeLa cells; assay: Mitotracker Red mitochondrial activity; assay type: cell-based; details: 6 μM for 12 hours
Procedure: HeLa cells were treated with 6 μM Compound 9 for 12 hours. The cells were then incubated with Mitotracker Red (100 nM) for 15 minutes, washed, fixed with formaldehyde, and examined by fluorescent microscopy. […] This confirms that the invention affects mitochondrial activity.

Oc1cccc2c1OC(c1ccccc1)C=C2 (stereo not drawn) [Compound 7]
Effect on yeast proliferation ([1]; doses up to and including 6 μM): not effective

Clc1ccc2c(c1)N=C(c1ccccc1)CO2 [Compound 3]
Effect on yeast proliferation ([1]; doses up to and including 6 μM): not effective

O=[N+]([O-])c1ccc2c(c1)N=C(c1ccccc1)CO2 [Compound 2]
Effect on yeast proliferation ([1]; doses up to and including 6 μM): not effective

O=[N+]([O-])c1ccc2c(c1)C=CC(c1ccccc1)O2 (stereo not drawn) [Compound 5]
Inhibition of yeast proliferation ([1]; 1 μM): −
Inhibition of yeast proliferation ([1]; 10 μM): −
Inhibition of yeast proliferation ([1]; 100 μM): −
Inhibition of yeast proliferation ([1]; 1 mM): −
Effect on yeast proliferation ([1]; all concentrations): inactive

c1ccc(C2=Nc3ccccc3OC2)cc1 [Compound 1]
Effect on yeast proliferation ([1]; doses up to and including 6 μM): not effective

Brc1ccc2c(c1)C=CC(c1ccccc1)O2 (stereo not drawn) [Compound 6]
Inhibition of yeast proliferation ([1]; 1 μM): −
Effect on yeast proliferation ([1]; 10 μM): partially inhibitory
Inhibition of yeast proliferation ([1]; 10 μM): +/−
Inhibition of yeast proliferation ([1]; 100 μM): +
Inhibition of yeast proliferation ([1]; 1 mM): +

CCCCCCCCC1C=Cc2cc([N+](=O)[O-])ccc2O1 (stereo not drawn) [Compound 8]
Inhibition of yeast proliferation ([1]; 1 μM): −
Inhibition of yeast proliferation ([1]; 10 μM): −
Inhibition of yeast proliferation ([1]; 100 μM): +
Inhibition of yeast proliferation ([1]; 1 mM): i

CCC1=C(C)/C(=C/c2ccc(C(=O)NC(=N)N)cc2)CCC1(C)C [Compound 9]
Inhibition of yeast proliferation ([1]; 1 μM): −
Effect on yeast proliferation ([1]; 4 μM): significant and reproducible inhibition
lengthening of the time to half maximal growth ([1]; 4 μM): 1.8 times
Effect on yeast proliferation ([1]; 10 μM): fully inhibited growth
Inhibition of yeast proliferation ([1]; 10 μM): +
Inhibition of yeast proliferation ([1]; 100 μM): +
Inhibition of yeast proliferation ([1]; 1 mM): +
Sensitivity of yeast to Compound 9 ([2]; Magmas A104S): increased sensitivity
Sensitivity of yeast to Compound 9 ([2]; Magmas N84T vs Wt plasmid): increased resistance
Sensitivity of yeast to Compound 9 ([2]; over-expression of Magmas: Wt plasmid vs Wt genomic): reduces sensitivity
Kd ([3]; yeast Magmas, FIG. 3A, read-out: calculated Kd): 33 µM
Kd ([3]; yeast target, read-out: binding constant): 34 ± 2 µM
Kd [4]: 36 µM
viability of human cells ([5]; K562, 2 um): +/−
viability of human cells ([5]; K562, 4 um): +/−
viability of human cells ([5]; K562, 6 um): −
viability of human cells ([5]; K562, 8 um): −
viability of human cells ([5]; K562, 12 um): −
viability of human cells ([5]; K562, 16 um): −
viability of human cells ([5]; K562, 20 um): −
viability of human cells ([5]; K562, 24 um): −
viability of human cells ([6]; 2 um): +/−
viability of human cells ([6]; 4 um): +/−
viability of human cells ([6]; 6 um): +/−
viability of human cells ([6]; 8 um): −
viability of human cells ([6]; 12 um): −
viability of human cells ([6]; 16 um): −
viability of human cells ([6]; 20 um): −
viability of human cells ([6]; 24 um): −
viability of human cells ([7]; 2 um): +/−
viability of human cells ([7]; 4 um): +/−
viability of human cells ([7]; 6 um): −
viability of human cells ([7]; 8 um): −
viability of human cells ([7]; 12 um): −
viability of human cells ([7]; 16 um): −
viability of human cells ([7]; 20 um): −
viability of human cells ([7]; 24 um): −
viability of human cells ([8]; 2 um): +/−
viability of human cells ([8]; 4 um): +/−
viability of human cells ([8]; 6 um): −
viability of human cells ([8]; 8 um): −
viability of human cells ([8]; 12 um): −
viability of human cells ([8]; 16 um): −
viability of human cells ([8]; 20 um): −
viability of human cells ([8]; 24 um): −
viability of human cells ([9]; U118, 2 um): +/−
viability of human cells ([9]; U118, 4 um): −
viability of human cells ([9]; U118, 6 um): −
viability of human cells ([9]; U118, 8 um): −
viability of human cells ([9]; U118, 12 um): −
viability of human cells ([9]; U118, 16 um): −
viability of human cells ([9]; U118, 20 um): −
viability of human cells ([9]; U118, 24 um): −
viability of human cells ([10]; U87, 2 um): +/−
viability of human cells ([10]; U87, 4 um): +/−
viability of human cells ([10]; U87, 6 um): −
viability of human cells ([10]; U87, 8 um): −
viability of human cells ([10]; U87, 12 um): −
viability of human cells ([10]; U87, 16 um): −
viability of human cells ([10]; U87, 20 um): −
viability of human cells ([10]; U87, 24 um): −
viability of human cells ([11]; 2 um): +
viability of human cells ([11]; 4 um): +
viability of human cells ([11]; 6 um): +
viability of human cells ([11]; 8 um): +
viability of human cells ([11]; 12 um): +
viability of human cells ([11]; 16 um): +
viability of human cells ([11]; 20 um): +/−
viability of human cells ([11]; 24 um): −
sensitivity of tumor cell lines relative to normal primary cells (HUVEC) ([11]; tumor cell lines vs HUVEC, viability at 48 hrs): 4 to 5 fold
Mitotracker Red intensity [12]: reduced

Clc1ccc2c(c1)C=CC(c1ccccc1)O2 (stereo not drawn) [Compound 4]
Inhibition of yeast proliferation ([1]; 1 μM): −
Inhibition of yeast proliferation ([1]; 10 μM): −
Inhibition of yeast proliferation ([1]; 100 μM): +
Inhibition of yeast proliferation ([1]; 1 mM): i
